Laboratory results from US10308620B2, “Muscarinic M1 receptor positive allosteric modulators” (SUVEN LIFE SCIENCES LIMITED, priority 2015, dated 2019).
Like-named read-outs stand apart in the source and are kept apart here.

Columns and labels:
[1] = Rodent brain penetration study; type: in vivo; conditions: rat, oral, 3 mg/kg, p.o., male Wistar rats, read-out: Single dose Rat Brain Penetration (Cb/Cp)
Method: Rodent Brain Penetration Study
Male Wistar rats (260±40 grams) were used as experimental animals. Three animals were housed in each cage. Animals were given water and food ad libitum throughout the experiment and maintained on a 12 hours light/dark cycle.
Brain penetration was determined in discrete manner in rats. One day prior to dosing day, male Wistar rats were acclimatized and randomly grouped according to their weight. At each time point (0.50, 1 and 2 hours) n=3 animals were used.
The test compounds were suitably preformulated and administered orally at (free base equivalent) 3 mg/kg. Blood samples were removed via cardiac puncture by using isoflurane anesthesia. The animals were sacrificed to collect brain tissue. Plasma was separated and brain samples were homogenized and stored frozen at −20° C. until analysis. The concentrations of the test compounds in plasma and brain were determined using LC-MS/MS method.
The test compounds were quantified in plasma and brain homogenate by qualified LC-MS/MS method using suitable extraction technique. The test compounds were quantified in the calibration range of 1-500 ng/mL in plasma and brain homogenate. Study samples were analyzed using calibration samples in the batch and quality control samples spread across the batch. Extent of brain-plasma ratio was calculated (Cb/Cp).

[2] = Rodent pharmacokinetic study; type: in vivo, rat; conditions: male Wistar rats; for clearance / half-life / Vd / Cmax / Tmax / bioavailability: rat, plasma; for Vd: read-out: Vz; for bioavailability: 3 mg/kg oral vs 1 mg/kg i.v.
Method: Rodent Pharmacokinetic Study
Male Wistar rats (260±50 grams) were used as experimental animals. Animals were housed individually in polypropylene cage. Two days prior to study, male Wistar rats were anesthetized with isoflurane for surgical placement of jugular vein catheter. Rats were randomly divided for oral (3 mg/kg) and intravenous (1 mg/kg) dosing (n=3/group) and fasted overnight before oral dosing (p.o.). However, rats allocated to intravenous (i.v.) dosing food and water was provided ad libitum.
At pre-determined point, blood was collected through jugular vein and replenished with an equivalent volume of normal saline. Collected blood was transferred into a labeled eppendorf tube containing 10 μL of heparin as an anticoagulant. Typically blood samples were collected at following time points: 0.08, 0.25, 0.5, 1, 2, 4, 6, 8, and 24 hours post dose. Blood was centrifuged at 4000 rpm for 10 minutes. Plasma was separated and stored frozen at −80° C. until analysis. The concentrations of the test compounds were quantified in plasma by qualified LC-MS/MS method using suitable extraction technique. The test compounds were quantified in the calibration range around 1-1000 ng/mL in plasma. Study samples were analyzed using calibration samples in the batch and quality control samples spread across the batch.
Pharmacokinetic parameters Cmax, Tmax, AUCt, T1/2, clearance, Vz and bioavailability were calculated by non-compartmental model using standard non-compartmental model by using Phoenix WinNonlin 6.0.2 or 6.0.3 version Software package.

Male Wistar rats [3] = test: Object recognition task model - scopolamine challenge; type: in vivo, rat; conditions: 0.3 mg/kg, p.o., with scopolamine
Method: Object Recognition Task Model—Scopolamine Challenge
(§1) The cognition enhancing properties of compounds of this invention were estimated by using this model.
(§2) Male Wistar rats (8-10 weeks old) were used as experimental animals. Four animals were housed in each cage. Animals were kept on 20% food deprivation from a day prior to experimentation. Water was provided ad libitum throughout the experiment. Animals were maintained on a 12 hours light/dark cycle in temperature and humidity controlled room. The experiment was carried out in an open field made up of acrylic. Rats were habituated to individual arenas (open field) for 1 hour in the absence of any objects on day 1.
Rats received vehicle or vehicle and scopolamine or compound of the formula (I) and scopolamine, before the familiar (T1). During the familiarization phase, (T1), the rats were placed individually in the arena for 3 minutes, in which two identical objects (a1 and a2) were positioned 10 cm from the wall. 3 minutes after T1, trial for memory test was performed. The same rats were placed in the same arena as they were placed in T1 trial. During the choice phase (T2) rats were allowed to explore the arena for 3 minutes in presence of a copy of familiar object (a3) and one novel object (b). During the T1 and T2 trial, explorations of each object (defined as sniffing, licking, chewing or having moving vibrissae whilst directing the nose towards the object at a distance of less than 1 cm) were recorded using stopwatch.
(§3) T1 is the total time spent exploring the familiar objects (a1+a2).
(§4) T2 is the total time spent exploring the familiar object and novel object (a3+b). Discriminative index=Time spent with novel object/(time spent with novel and familiar object).

[4] = target: recombinant human Muscarinic M1 receptor (Homo sapiens (Human), UniProt P11229); test: Allosteric potency EC50, CHO cells with pCRE-Luc reporter, in presence of EC20 of acetylcholine; type: cell-based; conditions: 4 hours
Summary of the method: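 Stable CHO cells carrying human M1 receptor and a pCRE-Luc reporter, serum-starved overnight, then exposed to rising compound concentrations plus EC20 acetylcholine in OptiMEM for 4 h at 37 °C. Luciferase read after lysis. EC50 is the concentration giving 50% luciferase stimulation with EC20 acetylcholine present.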

Male Wistar rats [5] = test: Object recognition task model (time induced memory deficit); type: in vivo, rat; conditions: 1 mg/kg, p.o.; for Exploration time mean ± S.E.M, Familiar object / Exploration time mean ± S.E.M, Novel object: choice trial 24 hours after T1
Method: Object Recognition Task Model
as §1, §2
One group of 12 rats received vehicle and another set of animals received test compounds or test compounds and Donepezil, before the familiar (T1) and choice (T2) trials. During the familiarization phase, (T1), the rats were placed individually in the arena for 3 minutes, in which two identical objects (a1 and a2) were positioned 10 cm from the wall. 24 hours after T1, trial for long-term memory test was performed. The same rats were placed in the same arena as they were placed in T1 trial. During the choice phase (T2) rats were allowed to explore the arena for 3 minutes in presence of a copy of familiar object (a3) and one novel object (b). During the T1 and T2 trial, explorations of each object (defined as sniffing, licking, chewing or having moving vibrissae whilst directing the nose towards the object at a distance of less than 1 cm) were recorded using stopwatch.
as §3, §4
The object recognition test was performed as described in Behavioural Brain Research, 1988, 31, 47-59.

[6] = cited from earlier work
M1 muscarinic receptor = M1 muscarinic receptor (Homo sapiens (Human), UniProt P11229); conditions: cited from earlier work
[7] = cited from earlier work; remark: listed apart in the source
[8] = choice trial 3 minutes after T1

recombinant human Muscarinic M1 receptor, sequence (P11229 whole entry): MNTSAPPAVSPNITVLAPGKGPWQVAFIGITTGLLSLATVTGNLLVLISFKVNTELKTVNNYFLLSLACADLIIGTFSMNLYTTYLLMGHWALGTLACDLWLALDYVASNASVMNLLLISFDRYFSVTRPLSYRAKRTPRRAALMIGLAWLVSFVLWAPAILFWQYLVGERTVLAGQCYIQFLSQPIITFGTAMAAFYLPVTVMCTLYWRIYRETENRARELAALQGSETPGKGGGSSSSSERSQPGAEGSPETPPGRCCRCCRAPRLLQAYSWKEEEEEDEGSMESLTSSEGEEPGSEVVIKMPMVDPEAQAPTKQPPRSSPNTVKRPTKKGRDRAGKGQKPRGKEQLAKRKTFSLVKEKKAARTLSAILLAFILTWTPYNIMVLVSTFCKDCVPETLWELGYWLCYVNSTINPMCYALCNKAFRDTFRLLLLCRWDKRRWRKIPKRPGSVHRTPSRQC

Row | SMILES | Kp [1] | AUC0-t ([2]; 1 mg/kg i.v. (bolus)) [ng·h/mL] | AUC0-t ([2]; 3 mg/kg oral (gavage)) [ng·h/mL] | clearance ([2]; iv, 1 mg/kg i.v. (bolus)) [mL/min/kg] | half-life ([2]; iv, 1 mg/kg i.v. (bolus)) [h] | Vd ([2]; iv, 1 mg/kg i.v. (bolus)) [L/kg] | Cmax ([2]; 3 mg/kg oral (gavage)) [ng/mL] | Tmax ([2]; 3 mg/kg oral (gavage)) [h] | half-life ([2]; 3 mg/kg oral (gavage)) [h] | bioavailability [2] [%] | EC50 [4] [µM] | Inference (Male Wistar rats [5]) | Exploration time mean ± S.E.M, Familiar object (Male Wistar rats [5]) [s] | Exploration time mean ± S.E.M, Novel object (Male Wistar rats [5]) [s] | other results
1 | O=C(N[C@H]1CCCC[C@@H]1O)C1=CN(Cc2ccc(Cl)nc2)c2ccccc2O1 [Example 21, N-(cis-1S,2S-2-Hydroxycyclohexyl)-4-(2-chloropyridin-5-ylmethyl)-4H-benzo[1,4]oxazine-2-carboxamide] | 0.25 ± 0.08 | 1490 ± 149 | 4270 ± 800 | 11 ± 1 | 1.7 ± 0.3 | 1.5 ± 0.1 | 992 ± 150 | 0.67 ± 0.29 | 2.7 ± 0.3 | 95 ± 18 | 0.369 | Active | 9.18 ± 1.63 | 17.67 ± 2.89 | 
2 | N#CC1(c2ccccn2)CCN(Cc2cc(C(=O)O)c(=O)n3ccccc23)CC1 [PQCA, 1-{[4-cyano-4-(pyridine-2-yl)piperidin-1-yl]methyl}-4-oxo-4H-quinolizine-3-carboxylic acid] |  |  |  |  |  |  |  |  |  |  |  |  |  |  | gastrointestinal side effects ([6]; at doses equal to or less than a fivefold margin from the minimum effective dose): no gastrointestinal side effects; efficacy in preclinical models of cognition ([6]; in vivo): efficacious; selectivity for M1 over the other muscarinic receptor sub types (M1 muscarinic receptor): highly selective
3 | CCCCCCOc1nsnc1C1=CCCN(C)C1 [Xanomeline] |  |  |  |  |  |  |  |  |  |  |  |  |  |  | effects on cognition ([7]; clinical Alzheimer's disease trial): significant effects on cognition; gastrointestinal side effects ([7]; clinical trials): gastrointestinal side effects led to a high dropout rate

Further lines, with some results ahead:

Row | Kp [1] | AUC0-t ([2]; 1 mg/kg i.v. (bolus)) [ng·h/mL] | AUC0-t ([2]; 3 mg/kg oral (gavage)) [ng·h/mL] | clearance ([2]; iv, 1 mg/kg i.v. (bolus)) [mL/min/kg] | half-life ([2]; iv, 1 mg/kg i.v. (bolus)) [h] | Vd ([2]; iv, 1 mg/kg i.v. (bolus)) [L/kg] | Cmax ([2]; 3 mg/kg oral (gavage)) [ng/mL] | Tmax ([2]; 3 mg/kg oral (gavage)) [h] | half-life ([2]; 3 mg/kg oral (gavage)) [h] | bioavailability [2] [%] | EC50 [4] [µM] | SMILES | Inference (Male Wistar rats [5]) | Exploration time mean ± S.E.M, Familiar object (Male Wistar rats [5]) [s] | Exploration time mean ± S.E.M, Novel object (Male Wistar rats [5]) [s] | other results
4 | 1.18 ± 0.38 | 834 ± 101 | 989 ± 386 | 19 ± 2 | 2.3 ± 0.7 | 4 ± 1.4 | 419 ± 162 | 0.5 | 2.3 ± 1.1 | 40 ± 15 | 0.422 | O=C(N[C@H]1CCCC[C@@H]1O)C1=CN(Cc2ccccc2F)c2ccccc2O1 [Example 1, N-(cis-1S, 2S-2-Hydroxycyclohexyl)-4-(2-fluorobenzyl)-4H-benzo[1,4]oxazine-2-carboxamide] | Active | 10.93 ± 1.98 | 19.27 ± 2.94 | Inference (Male Wistar rats [3]): Active; Exploration time mean ± S.E.M, Familiar object (Male Wistar rats [3]; [8]): 11.57 ± 1.51 s; Exploration time mean ± S.E.M, Novel object (Male Wistar rats [3]; [8]): 22.66 ± 2.90 s
5 | 0.65 ± 0.2 | 711 ± 137 | 1180 ± 245 | 24 ± 4 | 4.2 ± 2.2 | 8.3 ± 4.1 | 320 ± 68 | 1.33 ± 0.58 | 2.9 ± 1.3 | 55 ± 11 | 0.699 | COc1cccc(CN2C=C(C(=O)N[C@H]3CCCC[C@@H]3O)Oc3ccccc32)c1 [Example 9, N-(cis-1S, 2S-2-Hydroxycyclohexyl)-4-(3-methoxybenzyl)-4H-benzo[1,4]oxazine-2-carboxamide] | Active | 8.64 ± 0.82 | 18.55 ± 1.70 | 
6 | 1.44 ± 0.16 | 838 ± 163 | 1500 ± 200 | 20 ± 4 | 1.9 ± 0.6 | 3.1 ± 0.3 | 392 ± 43 | 1 | 1.8 ± 0.1 | 60 ± 8 | 0.498 | COc1cc(CN2C=C(C(=O)N[C@H]3CCCC[C@@H]3O)Oc3ccccc32)ccn1 [Example 11, N-(cis-1S,2S-2-Hydroxycyclohexyl)-4-(2-methoxypyridin-4-ylmethyl)-4H-benzo[1,4]oxazine-2-carboxamide] | Active | 10.05 ± 1.66 | 16.92 ± 1.86 | 
7 | 0.32 ± 0.02 | 419 ± 182 | 437 ± 138 | 44 ± 21 | 1.5 ± 0.9 | 6.8 ± 7.1 | 428 ± 78 | 0.42 ± 0.14 | 1.2 ± 0.6 | 35 ± 11 | 0.323 | O=C(N[C@H]1CCCC[C@@H]1O)C1=CN(Cc2ccncc2)c2ccccc2O1 [Example 23, N-(cis-1S,2S-2-Hydroxycyclohexyl)-4-(pyridin-4-ylmethyl)-4H-benzo[1,4]oxazine-2-carboxamide] | Active | 13.15 ± 1.55 | 17.99 ± 2.53 | 
